Laboratory results as given in ChEMBL document CHEMBL4420075, “Seriniquinones, melanoma-specific anticancer agents” (2016).

Assays:
NCI-H460 = assay: Growth inhibition of human NCI-H460 cells assessed as cell growth incubated for 48 hrs by sulforhodamine B assay; type: functional; parameters: concentration or dose not given beside the values
A498 = assay: Growth inhibition of human A498 cells assessed as cell growth incubated for 48 hrs by sulforhodamine B assay; type: functional; parameters: concentration or dose not given beside the values
HOP-92 = assay: Growth inhibition of human HOP92 cells assessed as cell growth incubated for 48 hrs by sulforhodamine B assay; type: functional; parameters: concentration or dose not given beside the values
CAKI-1 = assay: Growth inhibition of human Caki1 cells assessed as cell growth incubated for 48 hrs by sulforhodamine B assay; type: functional; parameters: concentration or dose not given beside the values
MCF7 = assay: Growth inhibition of human MCF7 cells assessed as cell growth incubated for 48 hrs by sulforhodamine B assay; type: functional; parameters: concentration or dose not given beside the values
HCC 2998 = assay: Growth inhibition of human HCC2998 cells assessed as cell growth incubated for 48 hrs by sulforhodamine B assay; type: functional; parameters: concentration or dose not given beside the values
SW-620 = assay: Growth inhibition of human SW620 cells assessed as cell growth incubated for 48 hrs by sulforhodamine B assay; type: functional; parameters: concentration or dose not given beside the values
LOX IMVI = assay: Growth inhibition of human LOXIMVI cells assessed as cell growth incubated for 48 hrs by sulforhodamine B assay; type: functional; parameters: concentration or dose not given beside the values
DU-145 = assay: Growth inhibition of human DU145 cells assessed as cell growth incubated for 48 hrs by sulforhodamine B assay; type: functional; parameters: concentration or dose not given beside the values
SK-OV-3 = assay: Growth inhibition of human SKOV3 cells assessed as cell growth incubated for 48 hrs by sulforhodamine B assay; type: functional; parameters: concentration or dose not given beside the values
SK-MEL-28 = assay: Growth inhibition of human SK-MEL-28 cells assessed as cell growth incubated for 48 hrs by sulforhodamine B assay; type: functional; parameters: concentration or dose not given beside the values
BT-549 = assay: Growth inhibition of human BT549 cells assessed as cell growth incubated for 48 hrs by sulforhodamine B assay; type: functional; parameters: concentration or dose not given beside the values
OVCAR-3 = assay: Growth inhibition of human OVCAR3 cells assessed as cell growth incubated for 48 hrs by sulforhodamine B assay; type: functional; parameters: concentration or dose not given beside the values
HT-29 = assay: Growth inhibition of human HT-29 cells assessed as cell growth incubated for 48 hrs by sulforhodamine B assay; type: functional; parameters: concentration or dose not given beside the values
MOLT-4 = assay: Growth inhibition of human MOLT4 cells assessed as cell growth incubated for 48 hrs by sulforhodamine B assay; type: functional; parameters: concentration or dose not given beside the values
OVCAR-4 = assay: Growth inhibition of human OVCAR4 cells assessed as cell growth incubated for 48 hrs by sulforhodamine B assay; type: functional; parameters: concentration or dose not given beside the values
786-0 = assay: Growth inhibition of human 786-0 cells assessed as cell growth incubated for 48 hrs by sulforhodamine B assay; type: functional; parameters: concentration or dose not given beside the values
RXF 393 = assay: Growth inhibition of human RXF393 cells assessed as cell growth incubated for 48 hrs by sulforhodamine B assay; type: functional; parameters: concentration or dose not given beside the values
CCRF-CEM = assay: Growth inhibition of human CCRF-CEM cells assessed as cell growth incubated for 48 hrs by sulforhodamine B assay; type: functional; parameters: concentration or dose not given beside the values
U-251 = assay: Growth inhibition of human U251 cells assessed as cell growth incubated for 48 hrs by sulforhodamine B assay; type: functional; parameters: concentration or dose not given beside the values
HOP-62 = assay: Growth inhibition of human HOP62 cells assessed as cell growth incubated for 48 hrs by sulforhodamine B assay; type: functional; parameters: concentration or dose not given beside the values
HCT-15 = assay: Growth inhibition of human HCT15 cells assessed as cell growth incubated for 48 hrs by sulforhodamine B assay; type: functional; parameters: scale not given: the % may be the effect or the level left
MDA-MB-468 = assay: Growth inhibition of human MDA-MB-468 cells assessed as cell growth incubated for 48 hrs by sulforhodamine B assay; type: functional; parameters: concentration or dose not given beside the values
NCI-H23 = assay: Growth inhibition of human NCI-H23 cells assessed as cell growth incubated for 48 hrs by sulforhodamine B assay; type: functional; parameters: concentration or dose not given beside the values
SR = assay: Growth inhibition of human SR cells assessed as cell growth incubated for 48 hrs by sulforhodamine B assay; type: functional; parameters: concentration or dose not given beside the values
SNB-19 = assay: Growth inhibition of human SNB19 cells assessed as cell growth incubated for 48 hrs by sulforhodamine B assay; type: functional; parameters: concentration or dose not given beside the values
SK-MEL-5 = assay: Growth inhibition of human SK-MEL-5 cells assessed as cell growth incubated for 48 hrs by sulforhodamine B assay; type: functional; parameters: concentration or dose not given beside the values
KM12 = assay: Growth inhibition of human KM12 cells assessed as cell growth incubated for 48 hrs by sulforhodamine B assay; type: functional; parameters: concentration or dose not given beside the values
M14 = assay: Growth inhibition of human M14 cells assessed as cell growth incubated for 48 hrs by sulforhodamine B assay; type: functional; parameters: concentration or dose not given beside the values
RPMI-8226 = assay: Growth inhibition of human RPMI8226 cells assessed as cell growth incubated for 48 hrs by sulforhodamine B assay; type: functional; parameters: concentration or dose not given beside the values
SF-539 = assay: Growth inhibition of human SF539 cells assessed as cell growth incubated for 48 hrs by sulforhodamine B assay; type: functional; parameters: scale not given: the % may be the effect or the level left
UACC-62 = assay: Growth inhibition of human UACC62 cells assessed as cell growth incubated for 48 hrs by sulforhodamine B assay; type: functional; parameters: concentration or dose not given beside the values
NCI-H322M = assay: Growth inhibition of human NCI-H322M cells assessed as cell growth incubated for 48 hrs by sulforhodamine B assay; type: functional; parameters: scale not given: the % may be the effect or the level left
SF-268 = assay: Growth inhibition of human SF268 cells assessed as cell growth incubated for 48 hrs by sulforhodamine B assay; type: functional; parameters: concentration or dose not given beside the values
NCI-H226 = assay: Growth inhibition of human NCI-H226 cells assessed as cell growth incubated for 48 hrs by sulforhodamine B assay; type: functional; parameters: concentration or dose not given beside the values
PC-3 = assay: Growth inhibition of human PC3 cells assessed as cell growth incubated for 48 hrs by sulforhodamine B assay; type: functional; parameters: concentration or dose not given beside the values
OVCAR-8 = assay: Growth inhibition of human OVCAR8 cells assessed as cell growth incubated for 48 hrs by sulforhodamine B assay; type: functional; parameters: concentration or dose not given beside the values
COLO 205 = assay: Growth inhibition of human COLO205 cells assessed as cell growth incubated for 48 hrs by sulforhodamine B assay; type: functional; parameters: concentration or dose not given beside the values
Hs-578T = assay: Growth inhibition of human Hs 578T cells assessed as cell growth incubated for 48 hrs by sulforhodamine B assay; type: functional; parameters: concentration or dose not given beside the values
TK-10 = assay: Growth inhibition of human TK10 cells assessed as cell growth incubated for 48 hrs by sulforhodamine B assay; type: functional; parameters: concentration or dose not given beside the values
MDA-MB-231 = assay: Growth inhibition of human MDA-MB-231 cells assessed as cell growth incubated for 48 hrs by sulforhodamine B assay; type: functional; parameters: concentration or dose not given beside the values
SNB-75 = assay: Growth inhibition of human SNB75 cells assessed as cell growth incubated for 48 hrs by sulforhodamine B assay; type: functional; parameters: concentration or dose not given beside the values
OVCAR-5 = assay: Growth inhibition of human OVCAR5 cells assessed as cell growth incubated for 48 hrs by sulforhodamine B assay; type: functional; parameters: scale not given: the % may be the effect or the level left
SK-MEL-2 = assay: Growth inhibition of human SK-MEL-2 cells assessed as cell growth incubated for 48 hrs by sulforhodamine B assay; type: functional; parameters: concentration or dose not given beside the values
K562 = assay: Growth inhibition of human K562 cells assessed as cell growth incubated for 48 hrs by sulforhodamine B assay; type: functional; parameters: concentration or dose not given beside the values
UO-31 = assay: Growth inhibition of human UO31 cells assessed as cell growth incubated for 48 hrs by sulforhodamine B assay; type: functional; parameters: concentration or dose not given beside the values
HCT-116 [1] = assay: Growth inhibition of human HCT116 cells assessed as cell growth incubated for 48 hrs by sulforhodamine B assay; type: functional; parameters: concentration or dose not given beside the values
ACHN = assay: Growth inhibition of human ACHN cells assessed as cell growth incubated for 48 hrs by sulforhodamine B assay; type: functional; parameters: scale not given: the % may be the effect or the level left
MDA-MB-435 = assay: Growth inhibition of human MDA-MB-435 cells assessed as cell growth incubated for 48 hrs by sulforhodamine B assay; type: functional; parameters: concentration or dose not given beside the values
NCI-H522 = assay: Growth inhibition of human NCI-H522 cells assessed as cell growth incubated for 48 hrs by sulforhodamine B assay; type: functional; parameters: concentration or dose not given beside the values
HL-60(TB) = assay: Growth inhibition of human HL-60(TB) cells assessed as cell growth incubated for 48 hrs by sulforhodamine B assay; type: functional; parameters: concentration or dose not given beside the values
SF-295 = assay: Growth inhibition of human SF295 cells assessed as cell growth incubated for 48 hrs by sulforhodamine B assay; type: functional; parameters: concentration or dose not given beside the values
A549 = assay: Growth inhibition of human A549/ATCC cells assessed as cell growth incubated for 48 hrs by sulforhodamine B assay; type: functional; parameters: concentration or dose not given beside the values
T47D = assay: Growth inhibition of human T47D cells assessed as cell growth incubated for 48 hrs by sulforhodamine B assay; type: functional; parameters: concentration or dose not given beside the values
NCI/ADR-RES = assay: Growth inhibition of human NCI/ADR-RES cells assessed as cell growth incubated for 48 hrs by sulforhodamine B assay; type: functional; parameters: concentration or dose not given beside the values
UACC-257 = assay: Growth inhibition of human UACC257 cells assessed as cell growth incubated for 48 hrs by sulforhodamine B assay; type: functional; parameters: concentration or dose not given beside the values
SN12C = assay: Growth inhibition of human SN12C cells assessed as cell growth incubated for 48 hrs by sulforhodamine B assay; type: functional; parameters: concentration or dose not given beside the values
Malme-3M = assay: Growth inhibition of human MALME-3M cells assessed as cell growth incubated for 48 hrs by sulforhodamine B assay; type: functional; parameters: scale not given: the % may be the effect or the level left
HCT-116 [2] = assay: Cytotoxicity in human HCT116 cells by MTT assay; type: functional, cell-based

## CC(C)(O)C(O)CCc1ccc2c(=O)c3sc4c(=O)c5ccccc5c(=O)c4c3c(=O)c2c1 (stereo unspecified)
NCI-H460
  Activity: -52.32%
A498
  Activity: -87.3%
HOP-92
  Activity: -32.93%
CAKI-1
  Activity: -78.75%
MCF7
  Activity: -58.78%
HCC 2998
  Activity: -90.76%
SW-620
  Activity: -60.32%
LOX IMVI
  Activity: -82.6%
DU-145
  Activity: -94.41%
SK-OV-3
  Activity: -97.49%
SK-MEL-28
  Activity: -96.8%
BT-549
  Activity: -96.67%
OVCAR-3
  Activity: -68.52%
HT-29
  Activity: -46.19%
MOLT-4
  Activity: -36.2%
OVCAR-4
  Activity: -71.07%
786-0
  Activity: -95.07%
RXF 393
  Activity: -77.25%
CCRF-CEM
  Activity: -29.57%
U-251
  Activity: -92.83%
HOP-62
  Activity: -90.94%
HCT-15
  Activity: -61.54%
MDA-MB-468
  Activity: -83.65%
NCI-H23
  Activity: -50.82%
SR
  Activity: -25%
SNB-19
  Activity: -98.59%
SK-MEL-5
  Activity: -98.07%
KM12
  Activity: -76.76%
M14
  Activity: -93.82%
RPMI-8226
  Activity: -39.84%
SF-539
  Activity: -99.46%
UACC-62
  Activity: -88.01%
NCI-H322M
  Activity: -97.48%
SF-268
  Activity: -57.54%
NCI-H226
  Activity: -49.62%
PC-3
  Activity: -79.46%
OVCAR-8
  Activity: -38.88%
COLO 205
  Activity: -91.79%
Hs-578T
  Activity: 1.09%
TK-10
  Activity: -89.49%
MDA-MB-231
  Activity: -15.99%
SNB-75
  Activity: -95.74%
OVCAR-5
  Activity: -85.63%
SK-MEL-2
  Activity: -72.32%
K562
  Activity: -59.88%
UO-31
  Activity: -96.98%
HCT-116 [1]
  Activity: -80.84%
ACHN
  Activity: -96.22%
MDA-MB-435
  Activity: -93.07%
NCI-H522
  Activity: -72.26%
HL-60(TB)
  Activity: -46.78%
SF-295
  Activity: -92.59%
A549
  Activity: -55.33%
T47D
  Activity: -51.1%
NCI/ADR-RES
  Activity: -15.35%
UACC-257
  Activity: -92.08%
SN12C
  Activity: -69%
Malme-3M
  Activity: -93.22%

## CC(=O)Oc1ccc2c(=O)c3c(sc4c(=O)c5cc(O)ccc5c(=O)c43)c(=O)c2c1
HCT-116 [2]
  IC50: 1600 nM

## O=c1c2ccccc2c(=O)c2c1sc1c(=O)c3cc(Cl)ccc3c(=O)c12
HCT-116 [2]
  IC50: 150 nM

## CC(=O)Oc1ccc2c(=O)c3c(sc4c(=O)c5cc(OC(C)=O)ccc5c(=O)c43)c(=O)c2c1
HCT-116 [2]
  IC50: 5800 nM
